“And” between values parts separate entries of the source, which are not always exact repeats. Identical values can stand only once.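 A five-concentration, 48-hour dose response in 96-well plates underlies each endpoint, interpolated linearly between surrounding concentrations. GI50 is the concentration that inhibits growth by half. TGI denotes the concentration required for complete inhibition of growth.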
Experiments:
Assay in all cases: DTP human tumour cell line panel, 48 h
[1] = test system: BT-549 breast
[2] = test system: MCF7 breast
[3] = test system: HCT-15 colon
[4] = test system: DU-145 prostate
[5] = test system: SK-OV-3 ovarian
[6] = test system: ACHN renal
[7] = test system: SR leukemia
[8] = test system: MDA-MB-231 breast
[9] = test system: RXF 393 renal
[10] = test system: UACC-257 melanoma

SMILES	GI50 [1]	TGI [1]	TGI [2] [µM]	GI50 [3]	TGI [3] [µM]	GI50 [4] [µM]	GI50 [5]	TGI [5] [µM]	GI50 [6]	TGI [6] [µM]	TGI [7] [µM]	GI50 [8]	TGI [8] [µM]	TGI [9] [µM]	TGI [10] [µM]	GI50 [9] [µM]	GI50 [2] [µM]	GI50 [10] [µM]	TGI [4] [µM]	GI50 [7] [µM]
COC(=O)[C@@H](C)C[C@H](Cc1ccccc1)NC(=O)c1csc([C@@H](C[C@H](C(C)C)N(C)C(=O)[C@@H](NC(=O)[C@H]2CCCCN2C)C2CC2)OC(C)=O)n1	0.000506 µM and 0.00165 µM	0.0298 µM and 0.0146 µM	> 16.5	0.00131 µM and 0.00165 µM	> 16.5	0.000311	0.000604 µM and 0.00165 µM	> 16.5	0.00104 µM and 0.00165 µM	> 16.5	> 16.5	0.00143 µM and 0.00165 µM	> 16.5	–	–	–	–	–	–	–
CN(C)CC/[N+]([O-])=C(/c1ccccc1)C12CC3CC(CC(C3)C1)C2	–	–	–	–	38.8	–	–	31.4	–	29.8	43.9	–	–	32.9	29.9	–	–	–	–	–
O=C(c1ccccc1)c1cn(/N=C\c2ccccc2)c(=O)nc1-c1ccccc1	–	–	–	–	> 100	–	–	> 100	–	> 100	–	–	–	> 100	> 100	–	–	–	–	–
CN1C(=O)C2C(C1=O)C1(O)c3ccccc3C2(N)c2ccccc21 (centres undefined)	–	–	–	–	> 100	–	–	> 100	–	> 100	–	–	–	> 100	> 100	–	–	–	–	–
COc1cc(-c2nc(SCCC(C)C)nc(Nc3ccc(S(N)(=O)=O)cc3)c2C#N)cc(OC)c1OC	2.12 µM	6.3 µM	> 100	2.4 µM	> 100	3.47	–	–	2.79 µM	> 100	6.86	2.19 µM	7.8	3.97	> 100	1.83	3.19	3.9	> 100	1.91
Cn1cc(-c2ccc(-c3ccc(C4=NC5(CC5)C(=O)N4C[C@@H]4CCN(C(=O)C5CC5)C4)cc3)cc2)cn1	6.09 µM	26.1 µM	> 100	2.71 µM	43	–	29.9 µM	> 100	14.3 µM	> 100	95.3	11.2 µM	37.3	33.3	> 100	15.9	1.12	39.3	–	1.68
Cc1cc(Cl)ccc1NC(=O)CC1SC(=Nc2ccccc2Cl)NC1=O (centres undefined)	–	–	–	–	> 100	–	–	> 100	–	> 100	70.2	–	–	84.3	> 100	–	–	–	–	–
O=C(O)CCc1nn2c(nc1=O)sc1ccc3ccccc3c12	–	–	–	–	> 100	–	–	> 100	–	> 100	> 100	–	–	> 100	> 100	–	–	–	–	–
Cn1cc2ccccc2c1-c1nc(F)nc(OCC(=O)[C@H]2CCC3[C@@H]4CCC5=CC(=O)CC[C@]5(C)C4[C@@H](O)C[C@@]32C)n1 (some centres undefined)	–	–	–	–	20.7	–	–	37.3	–	32.6	12.8	–	–	14.5	37.3	–	–	–	–	–
O=Cc1c(O)c(C(=O)Nc2ccc3[nH]c(=O)[nH]c3c2)cc2ccccc12	–	–	–	–	> 100	–	–	> 100	–	> 100	–	–	–	> 100	> 100	–	–	–	–	–
Cc1cccc(C)c1NC(=O)C(=O)Nn1c(NN)nc2ccccc2c1=O	–	–	–	–	> 100	–	–	> 100	–	> 100	> 100	–	–	> 100	> 100	–	–	–	–	–
NC(N)=NS(=O)(=O)c1ccc(Nc2c3ccccc3nc3c(C(=O)Nc4ccc(S(N)(=O)=O)cc4)cccc23)cc1	–	–	–	–	> 100	–	–	> 100	–	> 100	–	–	–	> 100	> 100	–	–	–	–	–

Source: PubChem BioAssay (NCI)
